# Results from patent publication US20240209401A1, “CULTURE MEDIUM COMPOSITION FOR INCREASING GROWTH AND METABOLIC RATE OF ACETOGENIC STRAIN AND METHOD FOR CULTURING ACETOGENIC STRAIN USING THE SAME” (GWANGJU INSTITUTE OF SCIENCE AND TECHNOLOGY, priority 2022, published 2024).
# What was measured:
# [1] = system: acetogen strain; test: Growth inhibition by high methanol concentration in the medium; type: cell-based; settings: with respect to the total medium composition
# Description: In this case, the methanol may be contained in a concentration of more than 0 M and 1.5 M or less with respect to the total medium composition.
# If the concentration of methanol exceeds 1.5 M, it is not preferable because growth inhibition occurs due to the addition of a high concentration of organic solvent.
# [2] = system: acetogen strain; test: Steady-state culture (dilution rate of 0.018/h) with CO and CO2 gas substrates; type: cell-based; settings: methanol added
# Description: The method for culturing an acetogen strain may include a medium injection step of injecting the acetogen strain culture medium composition containing the C1 compound into a bioreactor; a strain inoculation step of inoculating the acetogenic strain into the culture medium composition; and a bioreactor driving step of culturing the acetogenic strain by driving the bioreactor. […]
compound,measurement,setting,value
CO [methanol],concentration of methanol at which growth inhibition occurs,[1],exceeds 1.5 M
same,cell concentration in the steady state,[2],17.4 g/L
same,cell conversion yield,[2],0.008 g DCW/mmol MeOH
